The test system of assay [1] is Escherichia coli. The assay can be described thus: Antibacterial activity against Escherichia coli ATCC 25922 strain assessed as inhibition of bacterial growth incubated for 8 hrs by CLSI protocol based microdilution assay. The assay is classed as functional.
Assay [2] has as its system Escherichia coli. Description: Antibacterial activity against Escherichia coli acraB strain assessed as inhibition of bacterial growth incubated for 8 hrs by CLSI protocol based microdilution assay. The assay is classed as functional. (In general: In broth dilution the organism is exposed to a series of concentrations in liquid medium.)
Assay [3] concerns Staphylococcus aureus. Description: Antibacterial activity against Staphylococcus aureus MRSA R3708 strain assessed as inhibition of bacterial growth incubated for 8 hrs by CLSI protocol based microdilution assay. In kind it is functional.
Assay [4] concerns Salmonella enterica. The assay can be described thus: Antibacterial activity against Salmonella enterica 87 strain assessed as inhibition of bacterial growth incubated for 8 hrs by CLSI protocol based microdilution assay. In kind it is functional.
Assay [5] deals with T1, Threonine--tRNA ligase (Salmonella enterica) (UniProt A0A3F3IEK2).
T1 sequence (whole entry): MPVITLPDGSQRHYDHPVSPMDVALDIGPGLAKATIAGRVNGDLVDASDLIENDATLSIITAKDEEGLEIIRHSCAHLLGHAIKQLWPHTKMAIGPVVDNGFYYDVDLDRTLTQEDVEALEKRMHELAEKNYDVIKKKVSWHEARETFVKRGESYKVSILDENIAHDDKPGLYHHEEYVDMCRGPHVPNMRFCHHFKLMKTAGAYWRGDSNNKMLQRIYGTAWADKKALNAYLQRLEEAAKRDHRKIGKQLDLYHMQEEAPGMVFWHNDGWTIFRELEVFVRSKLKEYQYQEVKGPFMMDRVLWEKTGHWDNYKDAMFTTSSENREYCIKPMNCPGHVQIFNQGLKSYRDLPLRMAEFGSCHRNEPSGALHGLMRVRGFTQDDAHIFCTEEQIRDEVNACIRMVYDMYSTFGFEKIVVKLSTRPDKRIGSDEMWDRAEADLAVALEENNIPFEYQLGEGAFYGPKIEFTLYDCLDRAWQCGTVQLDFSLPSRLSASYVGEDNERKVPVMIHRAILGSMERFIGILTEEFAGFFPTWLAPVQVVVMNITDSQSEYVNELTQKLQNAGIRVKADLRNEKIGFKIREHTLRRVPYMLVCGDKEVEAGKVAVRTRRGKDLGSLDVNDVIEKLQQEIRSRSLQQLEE
The assay can be described thus: Inhibition of recombinant salmonella enterica threonyl-tRNA synthetase assessed as reduction in enzyme activity at 10 uM incubated for 20 min by Kinase Glo luminescence assay relative to control. (In general: In Kinase-Glo more light means more ATP remaining.)

For assay [6], the system named is Salmonella enterica. Description: Antibacterial activity against Salmonella enterica 87 strain assessed as inhibition of bacterial growth incubated in M9 medium for 8 hrs by CLSI protocol based microdilution assay. In kind it is functional.
The subject of the next assay is Pseudomonas aeruginosa. Description: Antibacterial activity against Pseudomonas aeruginosa ATCC27853 strain assessed as inhibition of bacterial growth incubated for 8 hrs by CLSI protocol based microdilution assay. In kind it is functional.
Assay [7] has as its system Staphylococcus aureus. Description: Antibacterial activity against Staphylococcus aureus ATCC 29213 strain assessed as inhibition of bacterial growth incubated for 8 hrs by CLSI protocol based microdilution assay. The assay is classed as functional.
The target in assay [8] is T1, Threonine--tRNA ligase (Salmonella enterica). The assay can be described thus: Binding affinity to recombinant salmonella enterica threonyl-tRNA synthetase assessed as change in melting temperature at 0.1 mM by fluorescence-based thermal shift assay.
Another assay has as its system Enterococcus faecalis. Description: Antibacterial activity against Enterococcus faecalis ATCC 29212 strain assessed as inhibition of bacterial growth incubated for 8 hrs by CLSI protocol based microdilution assay. The assay is classed as functional.
Assay [9] concerns the target T2, Threonine--tRNA ligase (Salmonella enterica, UniProt A0A3F3IEK2).
T2 sequence (A0A3F3IEK2 whole entry): T1 sequence (whole entry)
Description: Binding affinity to full length recombinant salmonella enterica threonyl-tRNA synthetase assessed as dissociation constant by isothermal titration calorimetry assay.

Assay [10] deals with T2, Threonine--tRNA ligase. Description: Binding affinity to full length recombinant salmonella enterica threonyl-tRNA synthetase assessed as dissociation constant in presence of ATP by isothermal titration calorimetry assay. A general note: In ITC the heat of successive injections is recorded.
Assay [11] has as its target T2, Threonine--tRNA ligase. Description: Binding affinity to full length recombinant salmonella enterica threonyl-tRNA synthetase assessed as dissociation constant in presence of glycine by isothermal titration calorimetry assay.
Assay [12] concerns the target T2, Threonine--tRNA ligase. The assay can be described thus: Binding affinity to full length recombinant salmonella enterica threonyl-tRNA synthetase assessed as dissociation constant in presence of L-threonine by isothermal titration calorimetry assay.
Assay [13] addresses T2, Threonine--tRNA ligase. The assay can be described thus: Binding affinity to full length recombinant salmonella enterica threonyl-tRNA synthetase assessed as dissociation constant in presence of tRNA Leucine by isothermal titration calorimetry assay.
Assay [14] deals with T2, Threonine--tRNA ligase. The assay can be described thus: Inhibition of recombinant salmonella enterica threonyl-tRNA synthetase assessed as reduction in enzyme activity incubated for 20 min by Kinase Glo luminescence assay.
Assay [15] addresses T2, Threonine--tRNA ligase. Description: Binding affinity to full length recombinant salmonella enterica threonyl-tRNA synthetase assessed as dissociation constant in presence of tRNA Threonine by isothermal titration calorimetry assay.

Molecules are shown by their SMILES. Converted amounts (≈) assume the structure as drawn. Where only a bound is given, the exact number is not on record here.

The term MIC denotes the lowest concentration found to suppress growth. A word on the inhibition: it is how much of the control response was suppressed. For orientation: ΔTm means the change in melting temperature against a reference sample. Turning to `C[C@@H](O)[C@H](N)C(=O)NCC=CCn1cnc2cc(Cl)c(Cl)cc2c1=O`, the MIC is at least 128 µg/mL with Escherichia coli [1]; 64 µg/mL (≈ 166 µM) in the assay with Escherichia coli [2]; at least 128 µg/mL with Staphylococcus aureus [3]; 64 µg/mL (≈ 166 µM) in the assay on Salmonella enterica [4]; 16 µg/mL (≈ 41.5 µM) in the assay on Salmonella enterica [6]; at least 128 µg/mL with Pseudomonas aeruginosa. Also, the minimal inhibitory concentration (MIC) in the assay with Staphylococcus aureus [7] is at least 128 µg/mL; in the assay with Enterococcus faecalis, 64 µg/mL (≈ 166 µM). For the same compound, the inhibition in [5] amounted to 45%. Also, the ΔTm in [8] was 17.6 °C.

As a reminder, the Kd is the constant that tells how readily two partners part at equilibrium. The IC50 is the concentration needed to halve the response being measured. As for `C[C@@H](O)[C@H](N)C(=O)N[C@@H](CNC(=O)CCn1cnc2cc(Cl)c(Cl)cc2c1=O)c1cccc(-c2ccc3c(c2)CNC3=O)c1`, the Kd worked out at 35.4 nM at Threonine--tRNA ligase [9]; 75.1 nM on Threonine--tRNA ligase [10]; 44.4 nM on Threonine--tRNA ligase [11]; 290 nM on Threonine--tRNA ligase [12]; 36.8 nM at Threonine--tRNA ligase [13]; 166 nM at Threonine--tRNA ligase [15]. The MIC in the assay with Escherichia coli [1], in the assay on Escherichia coli [2], with Staphylococcus aureus [3], in the assay on Salmonella enterica [4], in the assay with Pseudomonas aeruginosa and in the assay with Staphylococcus aureus [7] was at least 128 µg/mL throughout. Besides, the MIC with Enterococcus faecalis was at least 128 µg/mL. In addition, the IC50 on Threonine--tRNA ligase [14] was 19 nM. In [5], the inhibition was over 99%. In assay [8], the ΔTm was 33.6 °C.

For the origin of these results see ChEMBL document CHEMBL5154832, “Design, Synthesis, and Proof-of-Concept of Triple-Site Inhibitors against Aminoacyl-tRNA Synthetases” (J Med Chem, 2022).
